In patent US9266835B2, “Quinoline derivatives useful as CB-1 inverse agonists” (JANSSEN PHARMACEUTICA NV, priority 2014, dated 2016):
pEC50: −log10 of the molar value.

What was measured:
[1] = molecular target: Human CB1R (Cannabinoid receptor 1) (Homo sapiens (Human), UniProt P21554); experiment: CB-1 in vitro cAMP assay (HTRF), inverse agonism; format: cell-based; settings: mean where tested more than once
Source text: (§1) CB1 and CB2 receptors are Gi-coupled GPCR. Activation of CB1 and CB2 receptors results in a decrease in cAMP production. An inverse agonist of the CB1 or CB2 receptor results in the opposite effect, an increase of cAMP production. The principle of this assay is based on HTRF® technology (Homogeneous Time-Resolved Fluorescence). The method is a competitive immunoassay between native cAMP produced by cells and the cAMP labeled with the fluorophore d2. The tracer binding is quantified by a Mab anti-cAMP labeled with Eu3+TBP-NHS Cryptate (supplied as part of the assay kit). The specific signal (i.e. energy transfer) is inversely proportional to the concentration of cAMP in the standard or sample.
(§2) Human CB1R (Cannabinoid receptor 1) was stably transfected in HEK-293 cells (DiscoveRx, cat: 93-0200C1). Human CB2R (Cannabinoid receptor 2) was stably transfected in HEK-293 cells (DiscoveRx, cat: 93-0201C1). Cell cultures were maintained in media: DMEM (Invitrogen Cat#12430-054) supplemented with 10% HI FBS (Invitrogen Cat#16140-071), 1% L-glutamine (Invitrogen Cat#25030-081), 0.2 mg/ml Hygromycin B (Invitrogen Cat#10687-010), 600 μg/mL G418 (Invitrogen Cat#10131-035), and 1X Penn/Strep (Invitrogen 15140-122). After cell expansion, aliquots were cryo-stored in media containing 5% DMSO (Pierce Cat#20684).
(§3) One day prior to experiments media was warmed to 37° C. and the cryo-stored cells were thawed in a 37° C. water bath. The cells were then added to media (10× volume) and the mixture was centrifuged at 1000 RPM for 5 min. The supernate was removed and the cells were re-suspended in media. A sample of the cell suspension was evaluated on a Cedex XS automated cell counter (Innovatis Systems) to determine viable cells/ml. Additional media was added to the cells to achieve a final cell density of 4E5 cells/mL. The cells were then plated into 384 well PDL white solid bottom plates (Greiner, Cat#781945) at 20 μL per well using a Multidrop (Thermo Scientific). Cells were removed from Row P (location of cAMP standards). Two columns of cells were plated into a clear bottom 384 well PDL coated plate (Greiner, Cat#781944) to view confluence the day of the assay. The cell plates were lidded and stored for 15 minutes in a hood, then transferred to an incubator (37° C., 5% CO2, 95% humidity) overnight.
(§4) DMSO was added to all wells of 384 well V bottom polystyrene plate (Greiner, Cat#781280) except to columns 1 and 13, rows 0 and P and wells M13-M23 and N13-N23. Test compounds (60 μL, 10 mM) were added to Column 1 and 13 (A1 through N1 and A13 through L13). Test compounds were serially diluted 1/3 by transferring and mixing 20 μl sample with 40 μL DMSO.
(§5) DMSO (40 μL) was added to wells of 384 well V bottom polystyrene plate: O2 through O11, M14 through M23, N14 through N23, and O14 through O23. AM630 (also known as [6-iodo-2-methyl-1-[2-(4-morpholinyl)ethyl]-1H-indol-3-yl](4-methoxyphenyl)-methanone, Cayman Chemical, Cat#10006974) (60 μL, 10 mM) was added to 01; and 1-(2,4-dichlorophenyl)-7-[(4-fluorophenyl)methylene]-4,5,6,7-tetrahydro-N-1-piperidinyl-1H-indazole-3-carboxamide (60 μL, 10 mM) was added to N13. The control was serially diluted 1/3 by transferring and mixing 20 μl sample with 40 μL DMSO. This process resulted 11 doses per control, 10 mM to […].
(§6) Cells plated the day prior to the assay in clear bottom plates were viewed on an inverse microscope to ensure confluency in the range of 60-75%. […]

[2] = molecular target: Human CB2R (Cannabinoid receptor 2) (Homo sapiens (Human), UniProt P34972); experiment: CB-2 in vitro cAMP assay (HTRF), inverse agonism; format: cell-based; settings: mean where tested more than once
Chain of Human CB2R (Cannabinoid receptor 2) (P34972 whole entry): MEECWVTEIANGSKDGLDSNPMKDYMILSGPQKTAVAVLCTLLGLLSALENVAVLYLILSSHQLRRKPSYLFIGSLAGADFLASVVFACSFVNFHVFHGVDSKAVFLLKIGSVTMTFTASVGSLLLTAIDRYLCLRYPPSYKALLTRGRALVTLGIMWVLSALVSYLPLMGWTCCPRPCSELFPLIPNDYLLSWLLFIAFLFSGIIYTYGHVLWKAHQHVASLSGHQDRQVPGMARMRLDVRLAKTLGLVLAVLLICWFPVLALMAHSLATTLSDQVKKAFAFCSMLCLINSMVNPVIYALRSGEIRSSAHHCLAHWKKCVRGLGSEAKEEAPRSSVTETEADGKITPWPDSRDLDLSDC
Source text: as §1, §2, §3, §4, §5, §6

Chain of Human CB1R (Cannabinoid receptor 1) (P21554 whole entry): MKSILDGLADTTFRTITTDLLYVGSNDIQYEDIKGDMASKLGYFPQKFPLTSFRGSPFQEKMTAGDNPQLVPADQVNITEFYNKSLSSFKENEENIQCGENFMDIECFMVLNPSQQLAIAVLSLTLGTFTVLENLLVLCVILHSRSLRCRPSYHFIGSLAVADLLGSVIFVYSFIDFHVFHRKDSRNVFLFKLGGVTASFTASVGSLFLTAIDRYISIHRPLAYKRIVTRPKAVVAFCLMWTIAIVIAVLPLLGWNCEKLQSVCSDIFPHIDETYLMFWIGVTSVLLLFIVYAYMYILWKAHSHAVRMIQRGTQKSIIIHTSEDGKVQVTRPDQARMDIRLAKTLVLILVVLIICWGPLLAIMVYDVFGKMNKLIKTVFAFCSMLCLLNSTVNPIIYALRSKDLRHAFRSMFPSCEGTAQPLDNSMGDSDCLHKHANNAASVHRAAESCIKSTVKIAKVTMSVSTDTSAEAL

SMILES	pEC50 [1]	pEC50 [2]
O=c1cc(/C=C/c2cccc(F)c2)c2cc(C(c3ccccc3)c3ccc(Cl)cc3)ccc2[nH]1 (centres unmarked) [Compound 32, 6-[(4-Chlorophenyl)(phenyl)methyl]-4-[(E)-2-(3-fluorophenyl)ethenyl]quinolin-2(1H)-one]	5.49	< 5.00
O=C(O)CN1CCC(Nc2cc(=O)[nH]c3ccc(C(c4ccc(Cl)cc4)c4ccc(Cl)cc4)cc23)CC1 [Compound 117, [4-({6-[Bis(4-chlorophenyl)methyl]-2-oxo-1,2-dihydroquinolin-4-yl}amino)piperidin-1-yl]acetic acid]	5.01	< 5.00
FC(F)(F)c1ccc(/C=C/c2ccnc3ccc(C(c4ccc(Cl)cc4)c4ccc(Cl)cc4)cc23)cc1 [Compound 521, 6-[Bis(4-chlorophenyl)methyl]-4-{(E)-2-[4-(trifluoromethyl)phenyl]-ethenyl}quinoline]	6.67	< 5.00
O=C(O)COc1ccc(Nc2cc(=O)[nH]c3ccc(C(c4ccc(Cl)cc4)c4ccc(Cl)cc4)cc23)cc1 [Compound 109, 2-(4-((6-(bis(4-chlorophenyl)methyl)-2-oxo-1,2-dihydroquinolin-4-yl)amino)phenoxy)acetic acid]	5.29	< 5.00
CC(C)(C)OC(=O)NCCCCOc1cc(C(c2ccc(Cl)cc2)c2ccc(Cl)cc2)cc2c(NC3CCN(S(=O)(=O)C(F)(F)F)CC3)ccnc12 [Compound 539, tert-butyl (4-((6-(bis(4-chlorophenyl)methyl)-4-((1-((trifluoromethyl)sulfonyl)piperidin-4-yl)amino)quinolin-8-yl)oxy)butyl)carbamate]	7.02	< 4.68
NC(=O)CC(=O)N1CCC(Nc2cc(=O)[nH]c3ccc(C(c4ccc(Cl)cc4)c4ccc(Cl)cc4)cc23)CC1 [Compound 106, 3-(4-((6-(bis(4-chlorophenyl)methyl)-2-oxo-1,2-dihydroquinolin-4-yl)amino)piperidin-1-yl)-3-oxopropanamide]	5.81	5.19
CC(C)(C)OC(=O)COc1ccc(Nc2cc(=O)[nH]c3ccc(C(c4ccc(Cl)cc4)c4ccc(Cl)cc4)cc23)cc1 [Compound 105, tert-butyl 2-(4-((6-(bis(4-chlorophenyl)methyl)-2-oxo-1,2-dihydroquinolin-4-yl)amino)phenoxy)acetate]	7.02	< 5.00
O=C(O)CCCOc1ccc(Nc2cc(=O)[nH]c3ccc(C(c4ccc(Cl)cc4)c4ccc(Cl)cc4)cc23)cc1 [Compound 121, 4-[4-({6-[Bis(4-chlorophenyl)methyl]-2-oxo-1,2-dihydroquinolin-4-yl}amino)phenoxy]butanoic acid]	5.99	< 5.00
O=c1cc(NCc2cncc(C(F)(F)F)c2)c2cc(C(c3ccc(Cl)cc3)c3ccc(Cl)cc3)ccc2[nH]1 [Compound 79, 6-[Bis(4-chlorophenyl)methyl]-4-({[5-(trifluoromethyl)pyridin-3-yl]methyl}amino)quinolin-2(1H)-one]	7.27	5.17
COC(=O)CCCCCOc1cc(NC2CCN(S(=O)(=O)C(F)(F)F)CC2)c2cc(C(c3ccc(Cl)cc3)c3ccc(Cl)cc3)ccc2n1 [Compound 534, Methyl 6-({6-[bis(4-chlorophenyl)methyl]-4-({1-[(trifluoromethyl)sulfonyl]-piperidin-4-yl}amino)quinolin-2-yl}oxy)hexanoate]	5.66	< 5.00
O=C(c1ccc(Nc2cc(=O)[nH]c3ccc(C(c4ccc(Cl)cc4)c4ccc(Cl)cc4)cc23)cc1F)N1CCCC1 [Compound 138]	6.64	6.12
CC(C)(C)OC(=O)N1CC[C@H](Nc2cc(=O)[nH]c3ccc(C(c4ccc(Cl)cc4)c4nccs4)cc23)C1 (stereo partly drawn) [Compound 45, tert-Butyl (3S)-3-({6-[(4-chlorophenyl)(1,3-thiazol-2-yl)methyl]-2-oxo-1,2-dihydroquinolin-4-yl}amino)pyrrolidine-1-carboxylate]	5.93	< 5.00
O=c1cc(/C=C/c2ccc(C(F)(F)F)cc2)c2cc(C(c3ccc(Cl)cc3)c3cccs3)ccc2[nH]1 (centres unmarked) [Compound 19, 6-[(4-Chlorophenyl)(thiophen-2-yl)methyl]-4-{(E)-2-[4-(trifluoromethyl)phenyl]-ethenyl}quinolin-2(1H)-one]	7.23	< 5.00
O=c1cc(/C=C/c2cccc(F)c2)c2cc(C(c3ccc(Cl)cc3)c3ccc(Cl)s3)ccc2[nH]1 (centres unmarked) [Compound 30, 6-[(4-Chlorophenyl)(5-chlorothiophen-2-yl)methyl]-4-[(E)-2-(3-fluorophenyl)ethenyl]quinolin-2(1H)-one]	5.86	< 5.00
O=c1cc(CCc2cccc(Cl)c2)c2cc(C(O)(c3ccc(Cl)cc3)c3nccs3)ccc2[nH]1 (centres unmarked) [Compound 8, 4-(3-chlorophenethyl)-6-((4-chlorophenyl)(hydroxy)(thiazol-2-yl)methyl)quinolin-2(1H)-one]	6.06	< 5.00
O=c1cc(/C=C/c2cccc(F)c2)c2cc(C(c3ccc(Cl)cc3)c3ccsc3)ccc2[nH]1 (centres unmarked) [Compound 16, 6-[(4-Chlorophenyl)(thiophen-3-yl)methyl]-4-[(E)-2-(3-fluorophenyl)ethenyl]quinolin-2(1H)-one]	7.08	7.05
COc1cc(NC2CCN(S(=O)(=O)C(F)(F)F)CC2)c2cc(C(c3ccc(Cl)cc3)c3ccc(Cl)cc3)cc(Br)c2n1 [Compound 546, 6-(bis(4-chlorophenyl)methyl)-8-bromo-2-methoxy-N-(1-((trifluoromethyl)sulfonyl)piperidin-4-yl)quinolin-4-amine]	6.92	5.32
CCOC(=O)CC(=O)N1CCC(Nc2cc(=O)[nH]c3ccc(C(c4ccc(Cl)cc4)c4ccc(Cl)cc4)cc23)CC1 [Compound 95, Ethyl 3-[4-({6-[bis(4-chlorophenyl)methyl]-2-oxo-1,2-dihydroquinolin-4-yl}amino)piperidin-1-yl]-3-oxopropanoate]	7.89	5.44
CC(C)(C)OC(=O)CCN1CCC(Nc2cc(=O)[nH]c3ccc(C(c4ccc(Cl)cc4)c4ccc(Cl)cc4)cc23)CC1 [Compound 114, tert-butyl 3-(4-((6-(bis(4-chlorophenyl)methyl)-2-oxo-1,2-dihydroquinolin-4-yl)amino)piperidin-1-yl)propanoate]	6.99	< 5.00
CCS(=O)(=O)N1CCC(Nc2cc(=O)[nH]c3ccc(C(c4ccc(Cl)cc4)c4ccc(Cl)cc4)cc23)CC1 [Compound #56, 6-(bis(4-chlorophenyl)methyl)-4-((1-(ethylsulfonyl)piperidin-4-yl)amino)quinolin-2(1H)-one]	7.66	< 5.00
COCCOc1cc(NC2CCN(S(=O)(=O)C(F)(F)F)CC2)c2cc(C(c3ccc(Cl)cc3)c3ccc(Cl)cc3)ccc2n1 [Compound 530, 6-(bis(4-chlorophenyl)methyl)-2-(2-methoxyethoxy)-N-(1-((trifluoromethyl)sulfonyl)piperidin-4-yl)quinolin-4-amine]	7.64	< 5.00
CC(C)(C)OC(=O)N1CC(CNc2cc(=O)[nH]c3ccc(C(c4ccc(Cl)cc4)c4nccs4)cc23)C1 (centres unmarked) [Compound 42, tert-Butyl 3-[({6-[(4-chlorophenyl)(1,3-thiazol-2-yl)methyl]-2-oxo-1,2-dihydroquinolin-4-yl}amino)methyl]azetidine-1-carboxylate]	5.63	
O=c1cc(NCC2CNC2)c2cc(C(c3ccc(Cl)cc3)c3nccs3)ccc2[nH]1 (centres unmarked) [Compound 43, 4-[(Azetidin-3-ylmethyl)amino]-6-[(4-chlorophenyl)(1,3-thiazol-2-yl)methyl]quinolin-2(1H)-one]	< 5.00	
